Assay results published in article PMC6539809, “Development of Oxygen-Bridged Pyrazole-Based Structures as Cannabinoid Receptor 1 Ligands” (Molecules, 2019).
Where “and” joins values, the source holds several entries; their conditions need not be identical. Equal entries are not always repeated. Where two headings read alike, the source gives them in different places.

Legend:
CD1 mice = test: Gastrointestinal transit (GIT), carmine marker; type: in vivo, mouse; conditions: data not shown
Excerpt: The mouse isolated vas deferens is a nerve-smooth muscle preparation that serves as a highly sensitive and quantitative functional in vitro bioassay for cannabinoid CB1R agonists. The effect of CB1 agonists is related to the action on naturally expressed prejunctional neuronal CB1Rs to inhibit release of the contractile neurotransmitters, noradrenaline and ATP, which is provoked by electrical stimulation. It has been shown that CB1 antagonist derivatives are able to block or reduce the inhibition of the electrically evoked contraction amplitude of the vas deferens induced by CB1 agonists, with parallel dextral shifts in CB1R agonist log concentration-response curves in electrically stimulated tissues. According to previous studies concerning cannabinoid agents, a gastrointestinal transit test was adopted to confirm CB1 antagonism. […] Moreover, the capability of CB1 antagonist compounds both to block the constipation effect induced by cannabinoid agonists and to themselves increase themselves gastrointestinal motility has been reported.
The same procedure previously reported by Murineddu et al. was adopted to evaluate the effect of the compounds on GIT. CD1 mice weighing 30–35 g were used. Carmine (Sigma Chemical Co, St. Louis, MO, USA) was suspended (6% wt/v) in distilled water containing 0.5% methylcellulose and administered by gavage at the dose of 0.3 mL/mouse. Briefly, after 20 min from carmine administration, mice were sacrificed by cervical dislocation and the stomach and small intestine were removed and the omentum was separated, avoiding stretching. The length of the intestine was measured starting from the pyloric sphincter to the ileocecal junction. The distance travelled by the head of the marker was measured and expressed as a percent of the total length of the small intestine. Using this procedure, the marker was consistently found at approximately 50% of the small intestine, 20 min after its administration to naive mice.
20 min later, mice were killed by dislocation cervical and intestines were removed. […] The length of the intestine from the pyloric sphincter to the ileocecal junction and the distance travelled by the carmine front were both measured and recorded. Groups of n = 10 mice were used in each experiment.
Statistical analyses were performed by one-way ANOVA followed by Newman-Keuls post-hoc comparison.

CB1 receptor = target: T1, CB1 receptor (Mus musculus, UniProt P47746); test: CB1 radioligand binding, [3H]-CP-55,940 competition in mouse brain (minus cerebellum) homogenate; conditions: for Ki: mean ± standard error, five independent experiments in triplicate; for CB1-affinity decrease relative to 1a: compared with 1a (Ki 10.25 nM); for Selectivity KiCB2/KiCB1: ratio of KiCB2 to KiCB1
T1 construct: from tissue; host or cells: mouse (CD1) brain minus cerebellum, membrane homogenate
Protocol: Radioligand binding experimental procedures previously reported by us were adopted.
(§1) Male CD1 mice weighing 30–35 g were killed by cervical dislocation and the brain (minus cerebellum) and spleen were rapidly removed and frozen. After thawing, tissues were homogenated in 20 vol. (wt/v) of ice-cold TME buffer (50 mM Tris-HCl, 1 mM EDTA and 3.0 mM MgCl2, pH 7.4). The homogenates were centrifuged at 1,086 ×g for 10 min at 4 °C, and the resulting supernatants were centrifuged at 45,000 ×g for 30 min.
(§2) All binding studies were performed in disposable glass tubes pre-treated with Sigma-Cote (Sigma Chemical Co., Ltd., Poole, UK), in order to reduce non-specific binding. The reaction was terminated by rapid filtration through Whatman GF/C filters presoaked in 0.5% polyethyleneimine (PEI) using a Brandell 36-sample harvester (Gaithersburg, MD, USA). Filters were washed five times with 4 mL aliquots of ice-cold Tris HCl buffer (pH 7.4) containing 1 mg/mL BSA. The filter bound radioactivity was measured in a liquid scintillation counter (Tricarb 2900, Packard, Meridien, […], USA) with 4 mL of scintillation fluid (Ultima Gold MV, Packard).
(§3) Protein determination was performed by means of a Bradford protein assay using BSA as a standard according to the protocol of the supplier (Bio-Rad, Milan, Italy).
(§4) All experiments were performed in triplicate and results were confirmed in at least five independent experiments. Data from radioligand inhibition experiments were analysed by nonlinear regression analysis of a Sigmoid Curve using Graph Pad Prism program. IC50 values were derived from the calculated curves and converted to Ki values as previously described.

CB2 receptor = target: T2, CB2 receptor (Mus musculus, UniProt P47936); test: CB2 radioligand binding, [3H]-CP-55,940 competition in mouse spleen homogenate; conditions: [3H]-CP-55,940, mouse spleen homogenate; mean ± standard error, five independent experiments in triplicate; read-out: KiCB2
T2 construct: from tissue; host or cells: mouse (CD1) spleen, membrane homogenate
Protocol: Affinities at CB1R and CB2R for compounds 1c–j were assessed by competition of [^3H]-CP-55,940 in mouse brain (minus cerebellum) and spleen homogenates, respectively. Radioligand binding experimental procedures previously reported by us were adopted.
as §1
as §2, with “[^3H]-CP-55,940 binding was performed using the method previously described by Ruiu et al.. Briefly, the membranes (30–80 µg of protein) were incubated with 0.5–1 nM of [^3H]-CP-55,940 for 1 h at 30 °C in a final volume of 0.5 mL of TME buffer containing 5 mg/mL of fatty acid-free bovine serum albumin. Non-specific binding was estimated in the presence of 1 µM of CP-55,940. All” for “All”
as §3, §4

[1] = target: T3, CB1Rs of mouse vas deferens (Mus musculus, UniProt P47746); test: Isolated organ assay: electrically evoked contractions of mouse vas deferens; conditions: cumulative concentration-response curve
T3 construct: naturally expressed prejunctional neuronal CB1Rs; from tissue; host or cells: isolated vas deferens of male albino CD1 mice
Protocol: Vas deferens was obtained from male albino CD1 mice weighing 30 to 40 g. Tissue was mounted in a 10 mL organ bath at an initial tension of 0.5 g using a previously described method [16]. The bath contained Krebs-Henseleit solution (118.2 mM NaCl, 4.75 mM KCl, 1.19 mM KH2PO4, 25.0 mM NaHCO3, 11.0 mM glucose, and 2.54 mM CaCl2), which was kept at 37 °C and bubbled with 95% O2 and 5% CO2. Isometric contractions were evoked by stimulation with 0.5 sec trains of three pulses of 110% maximal voltage (train frequency, 0.1 Hz; pulse duration, 0.5 msec) through platinum electrodes attached to the upper end of each bath and a stainless-steel electrode attached to the lower end. Stimuli were generated using a Grass S88K stimulator and then amplified (multiplexing pulse booster 316S; Ugo Basile, Comerio, Italy) and divided to yield separate outputs to four organ baths. Contractions were monitored using a computer equipped with a data recording and analysis system (PowerLab 400) linked via preamplifiers (QuadBridge) to an F10 transducer (Biological Instruments, Besozzo, Italy). Each tissue was subject to several periods of stimulation. […] The stimulator was then switched off for 15 min, after which the tissues were subjected to further periods of stimulation each lasting 5 min and separated by a stimulation-free period. The compounds to be assayed were added once the contractile responses to electrical stimulation were reproducible. Preparations were exposed to cumulative increasing concentrations of the compounds to obtain concentration-response curves in the case of CB1 agonist (and partial agonist) compounds. […] Inhibition of the electrically evoked twitch response was expressed in percentage terms and was calculated by comparing the amplitude of the twitch response after each addition of the agonist compound (alone or in the presence of a potential CB1 antagonist) with the amplitude detected in absence of the compounds to be assayed (basal value). The pA2 values for competitive antagonism were calculated by Schild regression analysis [37]. Data were plotted as log antagonist concentration versus log [(antagonist concentration/agonist concentration)-1].

[2] = tested on: P-ERK 1/2 expression in mouse neuroblastoma N1E-115 cells (CB1Rs); test: P-ERK 1/2 expression in N1E-115 cells (Western blot); type: cell-based; conditions: 10 min exposure
Protocol: Agonist or antagonist activity of the new derivatives towards CB1Rs were assayed through in vitro testing based on the determination of phosphorylated ERK 1/2 (P-ERK 1/2) expression in a mouse neuroblastoma N1E-115 cell line. As previously reported, this cell line expresses CB1Rs but not CB2Rs; moreover, it has been shown that the exposure of N1E-115 cells to the cannabinoid agonists arachidonyl-2-chloroethylamide (ACEA) and WIN 55-212,2 induces a rapid phosphorylation and activation of the ERK 1/2. The addition of CB1 antagonists as SR141716A abolishes the response induced by the cannabinoid agonists.
N1E-115 cells were grown at 37 °C in humidified 5% CO2 in Dulbecco’s Modified Eagle’s Medium (high glucose supplemented with 10% fetal bovine serum (FBS), 1 μg/mL penicillin-streptomycin, 2 mM L-glutamine, 2.5 μg/mL amphotericin B and 50 μg/mL gentamicin). […] Tested and reference compounds were dissolved in Dulbecco’s phosphate buffered saline (D-PBS) with 1% DMSO and treatments were performed in a volume of 10 μL/mL of cell suspension.
P-ERK 1/2 expression was determined through Western blot analysis according to the previously reported procedure. One-way ANOVA was performed as a statistical analysis using the Graph Pad Prism program (San Diego, CA, USA).
The same procedure was adopted to determine CB1 specific antagonism for compounds which had no effect on P-ERK 1/2 expression themselves. In these last cases, WIN55,212-2 at 25 nM as a reference cannabinoid agonist agent and the new CB1 antagonists at 150–200 nM were employed.

C57Bl6/J mice = test: Acute food intake in fasted mice; type: in vivo, mouse
Protocol: To further evaluate the potential application of these CB1 antagonists in the control of food intake and in obesity treatment, compound 1b was preliminarily tested in comparison with SR141716A in an acute in vivo assay using C57Bl6/J mice. The evaluation was carried out according to the animal model previously reported by Di Marzo [19].
It is well known that CB1Rs mediate the hyperphagic effect of cannabinoids. […] To test the potential anti-obesity effect of the new CB1 antagonist 1b we performed food intake experiments according to the acute animal model described by Di Marzo [19]. For a comparison we also reported the results concerning the assumed lead compound of this new series, derivative 1a.
A widely described method was used for the screening of the new CB1 antagonists in the food intake animal model. C57Bl6/J mice weighing 20–25 g were housed individually on a reverse light-dark cycle in a room with temperature and humidity control. The mice were fasted for 18 h before testing. Vehicle or CB1 antagonists were administered by an intraperitoneal injection and 15 min later a known amount of food was presented. Food pellets were weighed after each hour for three hours. Rimonabant was used as internal positive control in order to evaluate the efficacy of each compound. All animal experiments were performed according to the UE (CEE N° 86/609) guidelines for the care and use of experimental animals.
Two-way ANOVA with Bonferroni post-testing was performed using GraphPad Prism version 5.00 for Windows (GraphPad Software, San Diego CA, USA).

[3] = [3H]-CP 55,940, mouse brain (minus cerebellum) homogenate, read-out: KiCB1

T2 sequence (P47936 whole entry): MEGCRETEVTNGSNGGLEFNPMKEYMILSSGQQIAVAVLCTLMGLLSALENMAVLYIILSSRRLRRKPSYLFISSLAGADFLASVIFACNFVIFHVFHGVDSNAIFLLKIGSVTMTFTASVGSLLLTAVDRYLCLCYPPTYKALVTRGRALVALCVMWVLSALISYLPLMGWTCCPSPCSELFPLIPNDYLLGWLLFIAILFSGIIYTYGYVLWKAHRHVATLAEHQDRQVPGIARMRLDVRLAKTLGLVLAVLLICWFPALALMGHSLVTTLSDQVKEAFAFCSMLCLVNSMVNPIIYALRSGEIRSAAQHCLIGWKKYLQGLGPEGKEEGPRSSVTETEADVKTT
T1 sequence (P47746 whole entry): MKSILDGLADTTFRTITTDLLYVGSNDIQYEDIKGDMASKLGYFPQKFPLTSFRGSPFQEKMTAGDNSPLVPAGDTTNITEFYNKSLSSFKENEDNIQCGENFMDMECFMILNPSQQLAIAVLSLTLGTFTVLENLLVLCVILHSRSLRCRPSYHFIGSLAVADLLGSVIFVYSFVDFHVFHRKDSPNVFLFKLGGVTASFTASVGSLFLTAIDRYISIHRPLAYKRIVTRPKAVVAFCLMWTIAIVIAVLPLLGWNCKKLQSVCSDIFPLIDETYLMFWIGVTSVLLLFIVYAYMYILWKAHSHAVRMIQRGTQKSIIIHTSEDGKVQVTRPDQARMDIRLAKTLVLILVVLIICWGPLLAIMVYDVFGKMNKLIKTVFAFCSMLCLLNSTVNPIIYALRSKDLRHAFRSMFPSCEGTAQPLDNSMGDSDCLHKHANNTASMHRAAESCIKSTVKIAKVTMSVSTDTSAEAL
T3 sequence (P47746 whole entry): as above

| Structure (SMILES) | melting point [°C] | Ki (CB1 receptor; [3]) | CB1-affinity decrease relative to 1a (CB1 receptor) [fold] | Ki (CB2 receptor) [µM] | further results |
| --- | --- | --- | --- | --- | --- |
| O=C(NN1CCCC1)c1nn(-c2ccc(Cl)cc2Cl)c2c1CCOc1cc(Cl)ccc1-2 [Compound 1c, 8-Chloro-1-(2,4-dichlorophenyl)-N-pyrrolidin-1-yl-4,5-dihydrobenzo-1H-6-oxa-cyclohepta[1,2-c]pyrazole-3-carbohydrazide] | 175 | < 0.06 µM and 0.0551 µM | 5.4 | 4.5 ± 0.5 | Effect on gastrointestinal transit compared with that of 1b (CD1 mice): Analogue results; Selectivity KiCB2/KiCB1 (CB1 receptor): > 57 |
| O=C(NN1CCCCCC1)c1nn(-c2ccc(Cl)cc2Cl)c2c1CCOc1cc(Cl)ccc1-2 [Compound 1d, 8-Chloro-1-(2,4-dichlorophenyl)-N-homopiperidin-1-yl-4,5-dihydrobenzo-1H-6-oxa-cyclohepta[1,2-c]pyrazole-3-carbohydrazide] | 137 to 138 | < 0.06 µM and 0.035 µM | 3.5 | 2 ± 0.05 | Effect on gastrointestinal transit compared with that of 1b (CD1 mice): Analogue results; Selectivity KiCB2/KiCB1 (CB1 receptor): > 57 |
| CC1(C)C2CCC(CNC(=O)c3nn(-c4ccc(Cl)cc4Cl)c4c3CCOc3cc(Cl)ccc3-4)C1C2 (stereo not shown) [Compound 1e, 8-Chloro-1-(2,4-dichlorophenyl)-N-(6,6-dimethyl-bicyclo[3.1.1]hept-2-yl-methyl)-4,5-dihydrobenzo-1H-6-oxa-cyclohepta[1,2-c]pyrazole-3-carboxamide] | 142 to 143 |  |  |  | Maximum inhibition of the amplitude of electrically-evoked contractions [1]: around 60%; Concentration up to which a dose response effect on P-ERK 1/2 expression was highlighted ([2]; N1E-115 cells): ≤ 75 nM; Effect on P-ERK 1/2 expression (agonist activity towards CB1) ([2]; compound alone, 1b–d at concentrations up to 1 μM): CB1 agonist activity |
| O=C(Nc1ccccc1)c1nn(-c2ccc(Cl)cc2Cl)c2c1CCOc1cc(Cl)ccc1-2 [Compound 1f, 8-Chloro-1-(2,4-dichlorophenyl)-N-phenyl-4,5-dihydrobenzo-1H-6-oxa-cyclohepta[1,2-c]pyrazole-3-carboxamide] | 130 | 0.233 ± 0.033 µM | 23 | 4.12 ± 0.62 |  |
| O=C(Nc1ccc(Cl)cc1)c1nn(-c2ccc(Cl)cc2Cl)c2c1CCOc1cc(Cl)ccc1-2 [Compound 1g, 8-Chloro-1-(2,4-dichlorophenyl)-N-(p-chlorophenyl)-4,5-dihydrobenzo-1H-6-oxa-cyclohepta[1,2-c]pyrazole-3-carboxamide] | 239 | 0.318 ± 0.036 µM |  | > 5 |  |
| Cc1ccc(NC(=O)c2nn(-c3ccc(Cl)cc3Cl)c3c2CCOc2cc(Cl)ccc2-3)cc1 [Compound 1h, 8-Chloro-1-(2,4-dichlorophenyl)-N-tolyl-4,5-dihydrobenzo-1H-6-oxa-cyclohepta[1,2-c] pyrazole-3-carboxamide] | 181 |  |  | > 5 | Ki (CB1 receptor; KiCB1, [3H]-CP 55,940, mouse brain (minus cerebellum) homogenate): 0.429 ± 0.049 µM |
| COc1ccc(NC(=O)c2nn(-c3ccc(Cl)cc3Cl)c3c2CCOc2cc(Cl)ccc2-3)cc1 [Compound 1i, 8-Chloro-1-(2,4-dichlorophenyl)-N-(p-methoxyphenyl)-4,5-dihydrobenzo-1H-6-oxa-cyclohepta[1,2-c]pyrazole-3-carboxamide] | 214 | 0.33 ± 0.045 µM |  | > 5 |  |
| O=C(Nc1ccc(C(F)(F)F)cc1)c1nn(-c2ccc(Cl)cc2Cl)c2c1CCOc1cc(Cl)ccc1-2 [Compound 1j] | 249 to 250 | 0.459 ± 0.057 µM |  | > 5 |  |
| Cc1c(C(=O)NN2CCCCC2)nn(-c2ccc(Cl)cc2Cl)c1-c1ccc(Cl)cc1 [rimonabant, N-piperidinyl-5-(4-chlorophenyl)-1-(2,4-dichlorophenyl)-4-methyl-1H-pyrazole-3-carboxamide, reference compound] |  |  |  |  | Food intake effect over time (C57Bl6/J mice; 10 mg/kg i.p., at 2 h and 3 h): fades away; Observable side effects / behavioural effects (C57Bl6/J mice; 20 mg/kg (highest assayed dosage)): marked behavioural effects |
